Assays:
HL-60 cells = test: Toxic dose assay, viable cell count by trypan blue exclusion at day seven; type: cell-based; conditions: seven days of treatment, duplicate runs, read-out: IC50 (dose at which the number of viable cells in the treated sample was 50% of that in the control at day seven)
Method: (§1) The AML-like cell lines HL-60 (promyelocytic) and U-937 (promonocytic) were obtained from the ATCC. AML-193 (monocytic) and THP-1 (monocytic) cells were obtained from the RW Johnson Pharmaceutical Research Center, San Diego. Cells were grown in Roswell Park Memorial Institute medium (RPMI) with 20% Fetal Bovine Serum (FBS). AML-193 was also supplemented with granulocyte-macrophage colony-stimulating factor (GM-CSF) (10 ng/ml), insulin (0.005 mg/ml), and transferrin (0.005 mg/ml).
(§2) The cells of Example 1 were inoculated into 6-well plates at an initial concentration of 1×10^5 cells/ml. (B)-6-[amino(4-chlorophenyl)(1-methyl-1H-imidazol-5-yl)methyl]-4-(3-chlorophenyl)-1-methyl-2(1H)-quinolinone) was added at concentrations ranging form 0.5 to 500 nM in 3 μl of DMSO directly to the culture medium. Control cells from Example 1 were grown in medium alone or in medium supplemented with vehicle (0.1% DMSO). Cell numbers were counted at days four and seven in a hemocytometer and cell viability was determined by trypan blue exclusion assay. The IC50 was defined as the dose at which the number of viable cells in the treated sample was 50% of that in the control at day seven. Calculations were made based on duplicate runs of the experiment. The IC50 of the four cell lines was calculated after seven days of treatment with the FTI.

U-937 cells = test: as above; type: cell-based; conditions: seven days of treatment, duplicate runs, read-out: IC50 (dose at which the number of viable cells in the treated sample was 50% of that in the control at day seven)
Method: as §1, §2

THP-1 cells = test: as above; type: cell-based; conditions: seven days of treatment, duplicate runs, read-out: IC50 (dose at which the number of viable cells in the treated sample was 50% of that in the control at day seven)
Method: as §1, §2

AML-193 cells = test: as above; type: cell-based; conditions: seven days of treatment, duplicate runs, read-out: IC50 (dose at which the number of viable cells in the treated sample was 50% of that in the control at day seven)
Method: as §1, §2

[1] = tested on: AML-like cell lines (AML-193, HL-60, THP-1, U-937); test: Time course assay with cDNA microarray gene expression profiling of treated AML-like cell lines; type: cell-based; conditions: 100 nM
Method: Duplicate cultures of the cells of Example 1 were inoculated into 6-well plates at an initial concentration of 1×10^5 cells/ml. (B)-6-[amino(4-chlorophenyl)(1-methyl-1H-imidazol-5-yl)methyl]-4-(3-chlorophenyl)-1-methyl-2(1H)-quinolinone) was supplemented at a concentration of 100 nM in 3 μl of DMSO directly to the culture medium. The concentration of 100 nM was chosen for the subsequent time course experiments to normalize the treatment protocol based, in part, on the results of Example 2. Duplicate control cultures were grown in medium containing 0.1% DMSO. Duplicate cultures were harvested daily for a total of six days. Cells were counted, assayed for viability, and total RNA isolated according to the manufacturer's protocol (Qiagen RNeasy). […] RNA was treated with DNase1 (Qiagen DNase1 kit) to remove any residual genomic DNA. Linear amplification of RNA was conducted according to the procedure described in U.S. Pat. No. 5,545,522 to Van Gelder et. al. Aliquots of 5 μg of aRNA were then prepared for hybridization to cDNA arrays. […]
The arrays contained 7452 cDNAs from the IMAGE consortium (Integrated Molecular Analysis of Genome and their Expression: Research Genetics, Huntsville, Ala.) and Incyte libraries. […] The fluorescence intensity for each spot was analyzed with AUTOGENE software (Biodiscovery, Los Angeles). […]

[2] = tested on: blast cells in bone marrow; test: Clinical response of AML patients treated with FTI (blast cells in bone marrow aspirates); type: in vivo; conditions: 600 mg twice daily over a 21 day period
Text: The therapeutic agents referred to in this specification are FTIs. They take on a multitude of forms but share the essential inhibitory function of interfering with or lessening the farnesylation of proteins implicated in cancer and proliferative diseases. Preferably, the FTIs are those indicated for the treatment of leukemias such as AML. A patient who responds to an FTI is one in whom a reduction of more than 50% of blast cells is seen in bone marrow following treatment with the FTI.
Bone marrow aspirates were obtained from two patients diagnosed with AML who had been treated with FTI. These AML patients were administered 600 mg (B)-6-[amino(4-chlorophenyl)(1-methyl-1H-imidazol-5-yl)methyl]-4-(3-chlorophenyl)-1-methyl-2(1H)-quinolinone) twice daily over a 21 day period. Bone marrow aspirates were taken at baseline and once a week for the three weeks of treatment. […] Response was determined as a reduction of more than 50% of blast cells in bone marrow aspirates. The aspirates were diluted to 15 ml with PBS and Ficoll-density centrifuged. White blood cells were washed twice with PBS, resuspended in FBS with 10% DMSO and immediately frozen at −80° C. Cells were cryogenically preserved to maintain cell viability. Samples were thawed at 37° C. and 10× volume of RPMI with 20% FBS was added drop-wise over a period of 5 min. […] Cell viability was determined by Trypan Blue assay. […]

Cn1cncc1[C@@](N)(c1ccc(Cl)cc1)c1ccc2c(c1)c(-c1cccc(Cl)c1)cc(=O)n2C [(B)-6-[amino(4-chlorophenyl)(1-methyl-1H-imidazol-5-yl)methyl]-4-(3-chlorophenyl)-1-methyl-2(1H)-quinolinone)]
IC50 (HL-60 cells): 24 nM
IC50 (U-937 cells): 44 nM
IC50 (THP-1 cells): 19 nM
IC50 (AML-193 cells): 134 nM
Overall change in gene expression, treated versus control samples from the same day (scatter-plot correlation) [1]: no gross changes in gene expression
Response (reduction of more than 50% of blast cells in bone marrow aspirates) ([2]; AML patient one): responded
Response (reduction of more than 50% of blast cells in bone marrow aspirates) ([2]; AML patient two): did not respond

Reference: US20070048782A1, “Methods for assessing and treating leukemia” (priority 2001, published 2007)
